According to patent US9078894B2 (AB SCIENCE, priority 2011, dated 2015):
Several values for one entry are separate records, joined by “and”; a condition that tells them apart may be missing. Identical values can stand only once. Each block holds one compound with its values, some of them ahead of it.

Columns and labels:
[1] = test system: Balb/c male mice sensitized with ovalbumine; experiment: Murine model of allergic airway inflammation (ovalbumine); assay type: in vivo, mouse; settings: oral, twice daily, 25 and 100 mg/kg/day; sensitized and challenged animals
Description: Balb/c male mice aged 9 weeks were sensitized with ovalbumine (50 μg) adsorbed with Al(OH)3 diluted in physiological saline (0.9% NaCl) by intraperitoneal injection on day 1 and 7. Sensitization was followed by intranasal challenges with ovalbumine (10 μg) diluted in 0.9% NaCl every day from day 18 to day 21. Non sensitized control animals received intraperitoneal injections of vehicle alone followed by intranasal challenges with NaCl 0.9% alone at the same time than the sensitized animals. […] On day 22, airway hyper responsiveness (AHR) was measured by the enhanced pause (PenH) in the whole body plethysmograph. The bronchoconstrictive response was evaluated as the response to a concentration-dependent methacholine (MCh) aerosol exposure. Mice were first exposed to a saline aerosol then to an aerosol generated from increasing concentrations of methacholine (0.05, 0.1, 0.2, 0.3, and 0.4M). Infiltration of inflammatory cells was measured immediately after assessment of AHR to methacholine via collection of bronchoalveolar lavage (BAL) fluid by lavage of the whole lung with physiological saline containing 1.6 mM EDTA. Cells were counted in the BAL and cell types identified by morphological criteria after Hemacolor staining.

[2] = test system: asthmatic patients with severe persistent asthma; experiment: Phase 2a 16-week double-blind placebo-controlled study in severe persistent asthma; assay type: in vivo, human; design: Oral corticosteroids absolute change (W 4 to W 16), Mean ± SD / Oral corticosteroids absolute change (W 4 to W 16), Median: unit not given here
Excerpt: The trial consisted of three phases: during the first 4 weeks, the corticosteroid dose remained constant; during the following 8 weeks, oral corticosteroid doses were decreased each week according to a predefined schedule, until weaning or an asthma exacerbation occurred; the final 4 weeks were a stabilization period for observation. Asthma exacerbation was defined as a deterioration of asthma symptoms requiring an emergency visit, a hospitalization or an increase in oral corticosteroid treatment. In case an asthma exacerbation occurred, oral corticosteroid therapy was resumed at the level prior to this occurrence following the acute treatment phase. Patients underwent a visit every 2 weeks during the first 4 weeks, then a weekly visit for the following 12 weeks. A possible treatment extension was part of the study protocol in case of clinical benefit, based on the investigators assessment. In these extension phases the follow-up of patients took place every 4 weeks during the first 3 months and then every 12 weeks until the end of the study. The primary objective was to measure the reduction of oral corticosteroids doses after 16 weeks of treatment. Therefore, efficacy and safety measurements were assessed at enrolment of each patient in the study prior to the administration of the investigational compound and then at week 2, and weekly from weeks 4 through to 16. The secondary objectives were to monitor the change from baseline in symptomatic scores (asthma control questionnaire, ACQ), the FEV1 and rescue medication intake when necessary. Patients, 18 to 75 years of age with a diagnosis of asthma for ≧3 years and severe uncontrolled disease for ≧1 year, and followed up at the same centre for ≧1 year, were eligible for this study. […] Exclusion criteria included: (a) any other significant respiratory or cardiac disease; (b) worsening of asthma symptoms requiring treatment with additional oral corticosteroids within 4 weeks of screening; (c) any other infections; (d) a history of acute infection requiring hospitalization or treatment with antibiotics within 2 weeks of screening; (e) rare variants of severe asthma such as Churg-Strauss syndrome or allergic bronchopulmonary aspergillosis; […] A treatment wash-out period of 4 months at time of enrolment was required for prior use of omalizumab.

[3] = test system: human cord blood mast cells; settings: cited from earlier work
[4] = test system: experimentally asthmatic cats; experiment: Experimental feline asthma, randomized blinded placebo-controlled study; assay type: in vivo, cat
Excerpt: Twelve experimentally asthmatic cats were enrolled in a randomized, blinded, placebo-controlled study. […] Exclusion criteria were evidence of cardiac insufficiency, evidence of gastric bleeding, major surgery within 2 weeks of treatment initiation, life expectancy less than 3 months, lactating or pregnant cats or cats intended for breeding, previous history of kidney disease or previous known episodes of proteinuria, administration of food listed on the “recall list” issued by FDA or vaccination within 4 weeks prior to enrollment, and any concurrent medical illness. […] Bronchoalveolar lavage fluid (BALF) eosinophil percentages and airway hyper-reactivity, determined by changes in ventilator mechanics in response to methacholine (MCh) challenge were evaluated at baseline, weeks 4, 8 and 12. Results of the MCh challenge were reported as the effective concentration of MCh that increased baseline airway resistance by 200% (EC200Raw) and the end-inspiratory pressure after a breath hold (plateau pressure, Pplat). Treatment was interrupted or discontinued if predetermined adverse events were noted. Cats naïve to Bermuda grass allergen (BGA) confirmed by intradermal skin testing (IDST) and with normal BALF underwent allergen sensitization. IDST was re-evaluated to confirm allergen sensitization. Next, allergen challenge of BGA as an aerosol in awake, spontaneously breathing cats was performed. Allergen solution (100 μg of BGA dissolved in PBS) was aerosolized into a clear chamber using an air compressor attached to a nebulizer. Seven challenges were administered over the next 2 weeks, at which time BALF was repeated to confirm development of eosinophilic airway inflammation. Bronchoalveolar lavage fluid was collected in a blind fashion at baseline and weeks 4, 8, and 12 of the study. Collection of BALF was obtained after Mch challenge and under the same anesthesia. A total nucleated cell count was performed on each BALF sample using a coulter counter. Cytological evaluation and differential cell counts were performed on samples prepared by cytocentrifugation. Differential cell counts (200 nucleated cells per slide) on modified Wright's stained slides were performed, and cell percentages were reported.

[5] = test system: patients; settings: 20 of 4127 patients; cited from earlier work
[6] = test system: patients; settings: estimated exposure of about 57,300 patients, June 2003 through December 2006; cited from earlier work
[7] = ITT population, 3.0 mg/kg/day (N = 12)
[8] = ITT population, 4.5 mg/kg/day (N = 11)
[9] = ITT population, 6.0 mg/kg/day (N = 10)
[10] = ITT population, all masitinib (N = 33)
[11] = subpopulation initially treated with >15 mg prednisone daily, 3.0 mg/kg/day (N = 9)
[12] = subpopulation initially treated with >15 mg prednisone daily, 4.5 mg/kg/day (N = 4)
[13] = subpopulation initially treated with >15 mg prednisone daily, 6.0 mg/kg/day (N = 6)
[14] = subpopulation initially treated with >15 mg prednisone daily, all masitinib (N = 19)

proteinuria, cats affected ([4]; 50 mg/day, p=0.002 vs placebo): every cat | permanent discontinuation due to proteinuria ([4]; at or after week 4): four | temporary drug interruption followed by dose reduction due to proteinuria ([4]; at or after week 4): two
Compound: Cc1ccc(NC(=O)c2ccc(CN3CCN(C)CC3)cc2)cc1Nc1nc(-c2cccnc2)cs1 [masitinib, 4-(4-methylpiperazin-1-ylmethyl)-N-[4-methyl-3-(4-pyridin-3ylthiazol-2-ylamino)phenyl]benzamide]
Penh (airway hyper responsiveness) [1]: a decrease of Penh | number of eosinophils in the bronchoalveolar lavage fluid [1]: marked decrease | ACQ score change ([2]; 3.0 mg/kg dose): 0.56 units | ACQ score change ([2]; 4.5 mg/kg dose): 1.57 units | ACQ score change ([2]; 6 mg/kg dose): 0.89 units | improvement of ACQ score at W16 ([2]; ITT analysis, all masitinib-treated patients, p<0.001): 0.99 unit | Oral corticosteroids absolute change (W 4 to W 16), Mean ± SD [2, 7]: −10.7 ± 19.2 | Oral corticosteroids absolute change (W 4 to W 16), Median [2, 7]: −14.0 | Patients weaned at W 16, number (percent) [2, 7]: 5 (41.7%) | Oral corticosteroids absolute change (W 4 to W 16), Mean ± SD [2, 8]: 0.2 ± 26.8 | Oral corticosteroids absolute change (W 4 to W 16), Median [2, 8]: −7.5 | Patients weaned at W 16, number (percent) [2, 8]: 2 (25.0%) | Oral corticosteroids absolute change (W 4 to W 16), Mean ± SD [2, 9]: −12.2 ± 18.5 | Oral corticosteroids absolute change (W 4 to W 16), Median [2, 9]: −11.3 | Patients weaned at W 16, number (percent) [2, 9]: 3 (37.5%) | Oral corticosteroids absolute change (W 4 to W 16), Mean ± SD [2, 10]: −8.0 ± 21.3 | Oral corticosteroids absolute change (W 4 to W 16), Median [2, 10]: −12.3 | Patients weaned at W 16, number (percent) [2, 10]: 10 (35.7%) | masitinib-related AE: diarrhea ([2]; all masitinib-treated patients): 18.2% | masitinib-related AE: fatigue ([2]; all masitinib-treated patients): 12.1% | masitinib-related AE: nausea ([2]; all masitinib-treated patients): 30.3% | masitinib-related AE: peripheral edema ([2]; all masitinib-treated patients): 18.2% | masitinib-related AE: pruritus ([2]; all masitinib-treated patients): 12.1% | masitinib-related AE: skin rash ([2]; all masitinib-treated patients): 30.3% | masitinib-related AE: vomiting ([2]; all masitinib-treated patients): 12.1% | patients who experienced at least one AE ([2]; all patients treated with masitinib, regardless of dose): 93.9% | change in lung function ([2]; in this trial): no significant change in lung function | asthma exacerbation rate in patients experiencing at least one exacerbation, decrease ([2]; masitinib group, all doses merged): 42.4% | rate of asthma exacerbation compared to placebo ([2]; masitinib-treated patients): significantly reduced | percent reduction in oral corticosteroid doses ([2]; patients receiving >15 mg equivalent prednisone per day at baseline, all masitinib-treated patients): 52±53% | patients weaned off oral corticosteroids at W16, number ([2]; patients receiving >15 mg equivalent prednisone per day at baseline, masitinib treatment groups): six | Oral corticosteroids absolute change (W 4 to W 16), Mean ± SD [2, 11]: −17 ± 9 | Oral corticosteroids absolute change (W 4 to W 16), Median [2, 11]: −20 | Oral corticosteroids percent change (W 4 to W 16), Mean ± SD [2, 11]: −68 ± 38% | Oral corticosteroids percent change (W 4 to W 16), Median [2, 11]: −81% | Patients weaned at W 16, number (percent) [2, 11]: 4 (44.4%) | Oral corticosteroids absolute change (W 4 to W 16), Mean ± SD [2, 12]: −7 ± 8 | Oral corticosteroids absolute change (W 4 to W 16), Median [2, 12]: −5 | Oral corticosteroids percent change (W 4 to W 16), Mean ± SD [2, 12]: −33 ± 42% | Oral corticosteroids percent change (W 4 to W 16), Median [2, 12]: −19% | Patients weaned at W 16, number (percent) [2, 12]: 0 (0.0%) | Oral corticosteroids absolute change (W 4 to W 16), Mean ± SD [2, 13]: −14 ± 22 | Oral corticosteroids absolute change (W 4 to W 16), Median [2, 13]: −16 | Oral corticosteroids percent change (W 4 to W 16), Mean ± SD [2, 13]: −40 ± 78% | Oral corticosteroids percent change (W 4 to W 16), Median [2, 13]: −69% | Patients weaned at W 16, number (percent) [2, 13]: 2 (33.3%) | Oral corticosteroids absolute change (W 4 to W 16), Mean ± SD [2, 14]: −14 ± 14 | Oral corticosteroids absolute change (W 4 to W 16), Median [2, 14]: −15 | Oral corticosteroids percent change (W 4 to W 16), Mean ± SD [2, 14]: −52 ± 53% | Oral corticosteroids percent change (W 4 to W 16), Median [2, 14]: −65% | FcεRI-mediated degranulation [3]: inhibition of FcεRI-mediated degranulation | group mean±SD % BALF eosinophils ([4]; after 4 weeks of therapy, 50 mg orally once daily, p=0.023 vs placebo): 7±9% | Pplat with MCh challenge ([4]; after 4 weeks of therapy, no significant increase in masitinib-treated cats (p=0.32)): blunting of airflow limitation | group mean±SD EC200Raw, difference between groups ([4]; at baseline or after 4 weeks of therapy, MCh challenge): no significant difference | other side effects suspected of being associated with masitinib administration ([4]; infrequent overall, no specific therapy required): vomiting, diarrhea, Heinz bodies, hypoalbuminemia, hypoglobulinemia, hypercholesterolemia and ALT increase | masitinib-treated cats with % BALF eosinophils <17% ([4]; week 4): five of six | % BALF eosinophils, values of individual cats ([4]; week 4, the five masitinib-treated cats below 17%): 1% (2×) and 2% and 3.5% and 15% | change in Pplat with MCh challenge versus saline aerosol, compared between treatment groups ([4]; week 4 compared to baseline): significant (p=0.033) decrease

Compound: omalizumab: an anti-immunoglobulin E antibody (anti-IgE) approved for severe allergic asthma
malignant neoplasms observed in omalizumab-treated patients [5]: 0.5% | frequency of anaphylaxis attributed to omalizumab use [6]: at least 0.2%
